{"source": "ChEMBL document CHEMBL4420071", "about": "“Method for treating skin with retinoids and retinoid boosters” (2013)", "key": {"[1]": {"species": "Homo sapiens", "test": "Inhibition of transglutaminase in human keratinocytes assessed as mean transglutaminase activity level at 1.23 10^-5M in presence of 10 uM retinal relative to retinal alone", "assay_type": "cell-based", "parameters": "scale not given: the % may be the effect or the level left"}, "[2]": {"species": "Homo sapiens", "test": "Inhibition of transglutaminase in human keratinocytes assessed as mean transglutaminase activity level at 3.73 10^-4M in presence of 10 uM retinal relative to retinal alone", "assay_type": "cell-based", "parameters": "scale not given: the % may be the effect or the level left"}, "[3]": {"species": "Homo sapiens", "description": "Inhibition of transglutaminase in human keratinocytes in presence of 10 uM retinal relative to retinal alone"}, "[4]": {"species": "Homo sapiens", "test": "Inhibition of transglutaminase in human keratinocytes assessed as mean transglutaminase activity level at 8.2 10^-6M in presence of 10 uM retinal relative to retinal alone", "assay_type": "cell-based", "parameters": "scale not given: the % may be the effect or the level left"}, "[5]": {"species": "Homo sapiens", "test": "Inhibition of transglutaminase in human keratinocytes assessed as mean transglutaminase activity level at 1.4 10^-2M in presence of 10 uM retinal relative to retinal alone", "assay_type": "cell-based", "parameters": "scale not given: the % may be the effect or the level left"}, "[6]": {"species": "Homo sapiens", "test": "Inhibition of transglutaminase in human keratinocytes assessed as mean transglutaminase activity level at 4.1 10^-5M in presence of 10 uM retinal relative to retinal alone", "assay_type": "cell-based", "parameters": "scale not given: the % may be the effect or the level left"}, "[7]": {"species": "Homo sapiens", "test": "Inhibition of transglutaminase in human keratinocytes assessed as mean transglutaminase activity level at 3.29 10^-7M in presence of 10 uM retinal relative to retinal alone", "assay_type": "cell-based", "parameters": "scale not given: the % may be the effect or the level left"}, "[8]": {"species": "Homo sapiens", "test": "Inhibition of transglutaminase in human keratinocytes assessed as mean transglutaminase activity level at 1.65 10^-7M in presence of 10 uM retinal relative to retinal alone", "assay_type": "cell-based", "parameters": "scale not given: the % may be the effect or the level left"}, "[9]": {"species": "Homo sapiens", "test": "Inhibition of transglutaminase in human keratinocytes assessed as mean transglutaminase activity level at 1 10^-3M in presence of 10 uM retinal relative to retinal alone", "assay_type": "cell-based", "parameters": "scale not given: the % may be the effect or the level left"}, "[10]": {"species": "Homo sapiens", "test": "Inhibition of transglutaminase in human keratinocytes assessed as mean transglutaminase activity level at 4.8 10^-3M in presence of 10 uM retinal relative to retinal alone", "assay_type": "cell-based", "parameters": "scale not given: the % may be the effect or the level left"}, "[11]": {"species": "Homo sapiens", "test": "Inhibition of transglutaminase in human keratinocytes assessed as mean transglutaminase activity level at 2 10^-7M in presence of 10 uM retinal relative to retinal alone", "assay_type": "cell-based", "parameters": "scale not given: the % may be the effect or the level left"}, "[12]": {"species": "Homo sapiens", "test": "Inhibition of transglutaminase in human keratinocytes assessed as mean transglutaminase activity level at 1.29 10^-6M in presence of 10 uM retinal relative to retinal alone", "assay_type": "cell-based", "parameters": "scale not given: the % may be the effect or the level left"}, "[13]": {"species": "Homo sapiens", "test": "Inhibition of transglutaminase in human keratinocytes assessed as mean transglutaminase activity level at 3.1 10^-5M in presence of 10 uM retinal relative to retinal alone", "assay_type": "cell-based", "parameters": "scale not given: the % may be the effect or the level left"}, "[14]": {"species": "Homo sapiens", "test": "Inhibition of transglutaminase in human keratinocytes assessed as mean transglutaminase activity level at 1.2 10^-5M in presence of 10 uM retinal relative to retinal alone", "assay_type": "cell-based", "parameters": "scale not given: the % may be the effect or the level left"}, "[15]": {"species": "Homo sapiens", "test": "Inhibition of transglutaminase in human keratinocytes assessed as mean transglutaminase activity level at 9.1 10^-4M in presence of 10 uM retinal relative to retinal alone", "assay_type": "cell-based", "parameters": "scale not given: the % may be the effect or the level left"}, "[16]": {"species": "Homo sapiens", "test": "Inhibition of transglutaminase in human keratinocytes assessed as mean transglutaminase activity level at 5.1 10^-8M in presence of 10 uM retinal relative to retinal alone", "assay_type": "cell-based", "parameters": "scale not given: the % may be the effect or the level left"}, "[17]": {"species": "Homo sapiens", "test": "Inhibition of transglutaminase in human keratinocytes assessed as mean transglutaminase activity level at 1.23 10^-4M in presence of 10 uM retinal relative to retinal alone", "assay_type": "cell-based", "parameters": "scale not given: the % may be the effect or the level left"}, "[18]": {"species": "Homo sapiens", "test": "Inhibition of transglutaminase in human keratinocytes assessed as mean transglutaminase activity level at 3.65 10^-6M in presence of 10 uM retinal relative to retinal alone", "assay_type": "cell-based", "parameters": "scale not given: the % may be the effect or the level left"}, "[19]": {"species": "Homo sapiens", "test": "Inhibition of transglutaminase in human keratinocytes assessed as mean transglutaminase activity level at 1 10^-8M in presence of 10 uM retinal relative to retinal alone", "assay_type": "cell-based", "parameters": "scale not given: the % may be the effect or the level left"}, "[20]": {"species": "Homo sapiens", "test": "Inhibition of transglutaminase in human keratinocytes assessed as mean transglutaminase activity level at 2 10^-8M in presence of 10 uM retinal relative to retinal alone", "assay_type": "cell-based", "parameters": "scale not given: the % may be the effect or the level left"}, "[21]": {"target": "T1, Cellular retinoic acid-binding protein 2 (Homo sapiens) (UniProt P29373)", "T1 sequence (whole entry)": "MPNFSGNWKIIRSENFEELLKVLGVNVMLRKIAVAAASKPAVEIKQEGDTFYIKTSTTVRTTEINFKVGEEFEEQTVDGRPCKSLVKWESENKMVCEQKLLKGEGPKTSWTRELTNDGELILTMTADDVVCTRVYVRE", "test": "Inhibition of radioactive all-trans retinoic acid binding to CRABP2 (unknown origin) expressed in Escherichia coli BLR(DE3)pLys incubated for 1 hr by scintillation counting assay", "details": "concentration not given here"}, "[22]": {"species": "Homo sapiens", "test": "Inhibition of transglutaminase in human keratinocytes assessed as mean transglutaminase activity level at 1.1 10^-8M in presence of 10 uM retinal relative to retinal alone", "assay_type": "cell-based", "parameters": "scale not given: the % may be the effect or the level left"}, "[23]": {"species": "Homo sapiens", "test": "Inhibition of transglutaminase in human keratinocytes assessed as mean transglutaminase activity level at 5.0 10^-8M in presence of 10 uM retinal relative to retinal alone", "assay_type": "cell-based", "parameters": "scale not given: the % may be the effect or the level left"}, "[24]": {"species": "Homo sapiens", "test": "Inhibition of transglutaminase in human keratinocytes assessed as mean transglutaminase activity level at 4.3 10^-9M in presence of 10 uM retinal relative to retinal alone", "assay_type": "cell-based", "parameters": "scale not given: the % may be the effect or the level left"}}}
{"smiles": "COc1cc(C=O)ccc1O", "values": [{"measurement": "Activity", "setting": "[1]", "value": 82, "unit": "%"}, {"measurement": "Activity", "setting": "[2]", "value": 101, "unit": "%"}, {"measurement": "IC20", "setting": "[3]", "value": 8.47, "unit": "×10⁻³ M"}, {"measurement": "Activity", "setting": "[4]", "value": 109, "unit": "%"}, {"measurement": "Activity", "setting": "[5]", "value": 21.5, "unit": "%"}, {"measurement": "Activity", "setting": "[6]", "value": 98, "unit": "%"}, {"measurement": "Activity", "setting": "[7]", "value": 93, "unit": "%"}, {"measurement": "Activity", "setting": "[8]", "value": 80, "unit": "%"}, {"measurement": "Activity", "setting": "[9]", "value": 124, "unit": "%"}, {"measurement": "Activity", "setting": "[10]", "value": 93.8, "unit": "%"}]}
{"smiles": "CCCCCCCCCCCCCCCCC(O)C(=O)O", "note": "(stereo unspecified)", "values": [{"measurement": "Activity", "setting": "[11]", "value": 142, "unit": "%"}, {"measurement": "Activity", "setting": "[12]", "value": 80, "unit": "%"}, {"measurement": "Activity", "setting": "[13]", "value": 96, "unit": "%"}, {"measurement": "Activity", "setting": "[14]", "value": 105, "unit": "%"}, {"measurement": "Activity", "setting": "[2]", "value": 69.3, "unit": "%"}, {"measurement": "Activity", "setting": "[15]", "value": 46.6, "unit": "%"}, {"measurement": "Activity", "setting": "[16]", "value": 64, "unit": "%"}, {"measurement": "Activity", "setting": "[17]", "value": 51, "unit": "%"}, {"measurement": "Activity", "setting": "[18]", "value": 63, "unit": "%"}, {"measurement": "Activity", "setting": "[19]", "value": 58, "unit": "%"}]}
{"smiles": "CCCCCCC(O)CCCCCCCCCCC(=O)O", "note": "(stereo unspecified)", "values": [{"measurement": "Activity", "setting": "[20]", "value": 118, "unit": "%"}, {"measurement": "Activity", "setting": "[1]", "value": -5.2, "unit": "%"}, {"measurement": "IC20", "setting": "[3]", "value": 1.45, "unit": "×10⁻⁵ M"}, {"measurement": "Activity", "setting": "[4]", "value": 97.6, "unit": "%"}, {"measurement": "inhibition", "setting": "[21]", "value": "> 50", "unit": "%"}, {"measurement": "Activity", "setting": "[6]", "value": 32.4, "unit": "%"}, {"measurement": "Activity", "setting": "[22]", "value": 98, "unit": "%"}, {"measurement": "Activity", "setting": "[23]", "value": 81, "unit": "%"}, {"measurement": "Activity", "setting": "[7]", "value": 82, "unit": "%"}, {"measurement": "Activity", "setting": "[8]", "value": 90.2, "unit": "%"}, {"measurement": "Activity", "setting": "[24]", "value": 71, "unit": "%"}]}
